Results taken from PubChem BioAssay (NCI).
Where “and” joins values, the source holds several entries; their conditions need not be identical. Identical values can stand only once.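 All cell lines were grown in 96-well plates and treated with compound for 48 hours. GI50 = concentration required for 50% inhibition of growth. At the TGI there is no net growth.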

How the values were obtained:
Assay in all cases: DTP human tumour cell line panel, 48 h
TK-10 renal = tested on: TK-10 renal
MOLT-4 leukemia = tested on: MOLT-4 leukemia
SF-295 CNS = tested on: SF-295 CNS
HOP-62 NSCLC = tested on: HOP-62 NSCLC
NCI-H23 lung = tested on: NCI-H23 lung
SK-MEL-5 melanoma = tested on: SK-MEL-5 melanoma
SNB-75 CNS = tested on: SNB-75 CNS
K-562 leukemia = tested on: K-562 leukemia
RPMI-8226 leukemia = tested on: RPMI-8226 leukemia
EKVX NSCLC = tested on: EKVX NSCLC

SMILES	TGI (TK-10 renal) [µM]	TGI (MOLT-4 leukemia) [µM]	TGI (SF-295 CNS)	TGI (HOP-62 NSCLC) [µM]	TGI (NCI-H23 lung) [µM]	TGI (SK-MEL-5 melanoma) [µM]	TGI (SNB-75 CNS) [µM]	TGI (K-562 leukemia) [µM]	TGI (RPMI-8226 leukemia) [µM]	TGI (EKVX NSCLC) [µM]	GI50 (TK-10 renal) [µM]	GI50 (MOLT-4 leukemia) [µM]	GI50 (SF-295 CNS) [µM]	GI50 (HOP-62 NSCLC) [µM]	GI50 (NCI-H23 lung) [µM]	GI50 (SK-MEL-5 melanoma) [µM]	GI50 (SNB-75 CNS) [µM]	GI50 (K-562 leukemia) [µM]	GI50 (RPMI-8226 leukemia) [µM]	GI50 (EKVX NSCLC) [µM]
COc1ccc(-c2cc(=O)c3cc(OC)c(OC)cc3[nH]2)cc1OC	> 100	> 100	> 100 µM	> 100	> 100	> 100	> 100	> 100	> 100	> 100										
CCCSC1=N/C(=C\c2ccco2)C(=O)N1	> 100	> 100	> 100 µM	> 100	> 100		> 100		> 100	> 100										
CCOC(=O)C(NC(=O)c1cccc(Cl)c1)(N1CCN(c2cc3c(cc2F)c(=O)c(C(=O)O)cn3CC)CC1)C(F)(F)F (stereo not given)	56.6	19.3	40 µM	36.6	42	27.2	61.2	52	62.8	68.3										
COc1ccc(Sc2ccccc2[N+](=O)[O-])cc1	> 100	> 100		> 100	> 100	> 100	19.7	> 100	> 100	> 100										
NS(=O)(=O)c1cc2c(cc1Cl)NC(C(=O)NNC(=O)c1ccncc1)=NS2(=O)=O	> 100	> 100	> 100 µM	> 100	> 100	> 100	> 100			> 100										
CCc1n[nH]c(=O)n1-c1ccncc1	> 100	> 100	> 100 µM	> 100	> 100	> 100	> 100	> 100	> 100	> 100										
Cn1c(=O)c(C#N)c(O)c2cc3ccccc3nc21	> 100	> 100	> 100 µM		> 100	> 100	> 100	> 100	> 100	> 100										
Cc1cc(NS(=O)(=O)c2ccc(NC(NC(=O)OC(C)C)(C(F)(F)F)C(F)(F)F)cc2)nc(C)n1	> 100	> 100	> 100 µM	> 100	> 100	> 100	> 100	> 100	> 100	> 100										
Cc1cc(N(CCCl)CCCl)ccc1/C=N\NC(=O)c1cccnc1	36.2	39.2	28.3 µM	> 100	> 100	39.1	> 100	> 100	59	> 100	11.2	8.19	4.17	19.5	18.4	15.7	25.5	20.1	20.1	48.8
COc1ccc(N=C(SSC(=Nc2ccc(OC)cc2)c2ccc([N+](=O)[O-])o2)c2ccc([N+](=O)[O-])o2)cc1	7.55	> 31.3	6.14 µM	6.41	3.2	19.5	2.9	> 25.3	> 100	3.47										
C[C@@H](c1ccccc1)N(CC#N)[C@H]1CCC[C@]1(O)/C=C/c1ccc2c(c1)OCO2	> 25	> 25	> 25 µM	> 25	> 25	> 25	> 25	> 25	> 25	> 25										
FC(F)(Sc1nc2ccccc2[nH]1)c1nc2ccccc2o1	> 100	> 100	> 100 µM	> 100	> 100	> 100	> 100	> 100	> 100											
O=C1C[C@@]23CCC4(CC2=CCC[C@H]3O1)OCCO4	> 100	> 100	> 100 µM	> 100	> 100	> 100		> 100	> 100	> 100										
CCCCCCCCCCCCCCCC(=O)OCC(COP(=O)(O)OCCNC(=O)CCSSc1ccccn1)OC(=O)CCCCCCCCCCCCCCC (stereo not given)		> 100	> 100 µM	> 100	> 100	> 100	> 100	> 100	> 100	> 100										
CCOC(=O)C1(NC(=O)OC(C)(C)C)CCc2[nH]oc(=O)c2C1 (stereo not given)	> 100	> 100	> 100 µM	> 100	> 100	> 100	> 100	> 100	> 100	> 100										
CC(C)S1=C2C(=O)CC(C)(C)CC2=Nc2ccccc21 (stereo not given)	> 100	> 100	> 100 µM	> 100	> 100	> 100	> 100	> 100	> 100	> 100										
CCOC(=O)c1ccc(-c2cccs2)[nH]1	> 100	> 100	> 100 µM	> 100	> 100	> 100	> 100	> 100	> 100	> 100										
CC(=O)OC1C(C)OC(OC2C[C@](O)(C(C)=O)Cc3c(O)c4c(c(O)c32)C(=O)c2ccccc2C4=O)C(F)C1OC(C)=O (stereo not given in full)	4.29	0.112	1.47 µM	13.8	1.81	2.18	4.33	> 100	2.14	99.2										
COc1ccc(/[N+]([O-])=C/c2ccccc2OC(=S)S)cc1	> 100	> 100	> 100 µM		85.5	> 100	> 100	> 100	61	> 100										
CO/C(N)=C(\C#N)N=Cc1cccs1	> 100	> 100	> 100 µM	> 100	> 100	> 100	> 100	> 100		> 100										
O=C(Cn1c(-c2ccccc2)cc2ccccc21)N1CCOCC1	> 100	> 100	> 100 µM	> 100	> 100	> 100		> 100	> 100	> 100										
CCOC(=O)c1sc2nc(SC)nc3c2c1NCN3c1ccccc1Cl	> 100	> 100	> 100 µM	> 100	> 100	> 100	64.9	> 100	> 100											
Nc1cc(O)c2cc(N=Nc3ccc(N=Nc4ccc(N=Nc5ccc6cc(S(=O)(=O)O)cc(S(=O)(=O)O)c6c5)c5ccccc45)c4cc(S(=O)(=O)O)ccc34)c(S(=O)(=O)O)cc2c1		> 100	> 100 µM	> 100	> 100	> 100	> 100	> 31.6	> 100	> 100										

SMILES	TGI (TK-10 renal) [µM]	TGI (MOLT-4 leukemia) [µM]	TGI (SF-295 CNS)	TGI (HOP-62 NSCLC) [µM]	TGI (NCI-H23 lung) [µM]	TGI (SK-MEL-5 melanoma) [µM]	TGI (SNB-75 CNS) [µM]	TGI (K-562 leukemia) [µM]	TGI (RPMI-8226 leukemia) [µM]	TGI (EKVX NSCLC) [µM]	GI50 (TK-10 renal) [µM]	GI50 (MOLT-4 leukemia) [µM]	GI50 (SF-295 CNS) [µM]	GI50 (HOP-62 NSCLC) [µM]	GI50 (NCI-H23 lung) [µM]	GI50 (SK-MEL-5 melanoma) [µM]	GI50 (SNB-75 CNS) [µM]	GI50 (K-562 leukemia) [µM]	GI50 (RPMI-8226 leukemia) [µM]	GI50 (EKVX NSCLC) [µM]
CCN(CCCl)c1ccc(NC(=O)c2cc(C(=O)NCCN(C)C)cc(C(=O)Nc3ccc(N(CC)CCCl)cc3)c2)cc1	38	5.99	72.3 µM	16.4	23.5	30.7	69.6		23.6											
CSC(=NCCCN=C(NS(=O)(=O)c1ccc(Cl)cc1)SC)NS(=O)(=O)c1ccc(Cl)cc1	> 100	33.2	> 100 µM	> 100			> 100	> 100	> 100	53.1										
N#Cc1c(N)n(-c2nc3ccccc3s2)c(=O)c2cc([N+](=O)[O-])ccc12	> 100	19.9	> 64.9 µM	22	36.5		> 48.3	38.6	> 100	> 56.3										
O=CC12CCCN1CCC2	> 100	> 100	> 100 µM	> 100	> 100	> 100		> 100		> 100										
O=C(NCc1ccc(Cl)c(Cl)c1)c1nc2ccccc2nc1NCc1ccc(Cl)c(Cl)c1	> 100		> 100 µM	> 100	> 100	> 100	> 100	> 100		> 100										
CO[C@@H](c1ccccc1)[C@H](O)[C@@](O)(c1ccccc1)P(=O)(OC)OC	> 100	> 100	> 100 µM		> 100	> 100	> 100	> 100	> 100	> 100										
CC(C)[C@H](NC(=O)OCc1ccccc1)C(=O)N[C@H](/C=C/C(=O)OC(C)(C)C)CO	> 100	> 100	> 100 µM	> 100	> 100	> 100				> 100										
Oc1[nH]c2ccccc2c1N=Nc1nc(-c2ccccc2)cs1	> 100	> 100	63.1 µM	66.4	> 100	> 100	41.3			76.7										
Nc1nc(Nc2cc(F)c(Cl)c(F)c2)cc(=O)[nH]1	> 100	> 100	> 100 µM	> 100	> 100	> 100	97.9		> 100	> 100										
COc1c(-c2nc3nc(N4CCN(C)CC4)ccc3[nH]2)cc(OC)c2c1nc(CCl)n2C		58.3	> 100 µM	49.1	47		29.8	> 100	43.1	39.2										
Cc1ccc(C(=O)C2CC3(CCC2(O)c2ccc(C)cc2)CC(=O)Nc2ccccc2C3=O)cc1 (stereo not given)	> 100	> 100	> 100 µM	> 100	> 100	97.6	93.5			> 100										
COc1ccc2c(C=O)c3n(c(=O)c2c1OC)CCc1cc2c(cc1-3)OCO2	> 100	> 100	> 100 µM	> 100	> 100	> 100	> 100		30.5	> 100										
COC1=C(C)C(=O)C2=C(C1=O)C1C3CC4=C(C(=O)C(OC)=C(C)C4=O)C(CNC(=O)C(C)=O)N3C(C#N)C(C2)N1C (stereo not given)	3.76		0.253 µM and 0.383 µM										0.000966							
O=C1CSC(c2cccc(Oc3ccccc3)c2)N1c1cc(Cl)ccc1Cl (stereo not given)	55.1	57.8	55.3 µM	47.1	98.2	31.3	62.6	50.1		80.9										
O=C(C[N+]1(c2ccccc2)CCOCC1)c1ccccc1	> 100	> 100	> 100 µM	> 100	> 100	> 100	> 100	> 100		> 100										
O=[N+]([O-])c1cccc2c1[nH]c1c(-c3ccccc3)nccc12		4.4	12.1 µM	5.04	8.48	3.46	7.59	> 100	> 100	> 29.5										
Cc1c(N(Cc2ccccc2)Cc2ccccc2)nc(S(C)(=O)=O)nc1S(C)(=O)=O	15.7	4.76	31.5 µM	28	3.35	25.3		4.83	7.61	3.01										
Nc1nc(N)c2ncn(Cc3ccccc3)c2n1	> 100	> 100	> 100 µM	> 100	> 100	> 100	0.937		> 100	> 100										
CCCCSC1=N/C(=C\c2ccccc2O)C(Cl)=N1	> 100	> 100	> 100 µM	> 100	> 100		> 100		> 100	> 100										
Cc1cccc2c1Oc1ncccc1C2NC(=O)CN(C)C (stereo not given)	> 10	> 10	> 10 µM		> 10		> 10	> 10		> 10										
Nn1c(=S)[nH]nc(/C=C/c2c(O)ccc3ccccc23)c1=O		86.1	96.1 µM	62.8	11	26.5		> 100	> 100	20.9										
CCCCN1/C(=N/Nc2n[nH]c(=O)c3ccccc23)SCC1c1ccc(Cl)cc1 (stereo not given)	92.7		22.6 µM	18.5	14.7	14.3	64	> 100	> 100	41.2										
